{"source": "paper PMC6826779", "about": "“Bis-allylic Deuterated DHA Alleviates Oxidative Stress in Retinal Epithelial Cells” (Antioxidants, 2019)", "assay": "Radical oxidation of DHAs with AAPH, LC-MS/MS quantification of 4-F4t-NeuroP", "format": "physicochemical", "details": "AAPH 1 mM, phosphate buffer/methanol, 37 °C, 14 h; compared to natural DHA", "description": "A solution of DHA in methanol (1 mg/mL, 0.5 mL) was added to 4.5 mL of phosphate-buffered saline solution (pH = 7.3) containing 1 mM of AAPH. The mixture was heated at 37 °C for 14 h, and then allowed to reach room temperature The mixture was spiked with 4 ng of internal standard (IS: C21-15-F2t-IsoP) and then purified using solid phase extraction.\nFor solid-phase extraction (SPE), Oasis MAX mixed polymer phase anion exchanger cartridges were used. Aliquots of 2 mL of sample were loaded on the cartridges previously conditioned with 2 mL of methanol and equilibrated with 2 mL of 0.02 M of formic acid (pH 4.5). […] Recoveries were determined to range between 83 and 100% (see Supplementary Materials). […]\nMass spectrometry analysis was performed on an AB SCIEX QTRAP 5500 (Sciex). […] Quantification was accomplished using external calibration lines constructed with the internal standard (IS: C21-15-F2t-IsoP). The data are presented as means ± SD determined from 3 independent experiments, each performed in triplicate assay.\nStandards solutions of IS (C21-15-F2t-IsoP) and NeuroP standardt (4(RS)-F4t-NeuroP) used to determine the different characteristic transitions and the elution time for each compound were prepared in methanol at 1 µg/mL from 1 mg/mL stock solution in methanol. […] Finally, calibration curves were calculated by the area ratio of the NeuroP and the internal standard.", "data": [{"smiles": "[2H]C([2H])(/C=C\\C/C=C\\C/C=C\\C/C=C\\C/C=C\\CC)/C=C\\CCC(=O)O", "note": "[D2-DHA, (6,6-D2)-DHA]", "values": [{"measurement": "4-F4t-NeuroP formation after radical oxidation", "value": "decrease of 4-F4t-NeuroP formation"}]}, {"smiles": "[2H]C([2H])(C=CCC=CCC=CCC=CCC)C=CC([2H])([2H])C=CCCC(=O)O", "note": "[D4-DHA, (6,6,9,9-D4)-DHA]", "values": [{"measurement": "4-F4t-NeuroP formation after radical oxidation", "value": "decrease of 4-F4t-NeuroP formation"}]}]}
